Counter-ions that a name gives are not always drawn.

The source of these data is patent US5981540A, “Heterocycle-condensed morphinoid derivatives” (SmithKline Beecham Farmaceutici S.P.A., priority 1994, dated 1999).

In one assay the target is T1, delta opioid receptor (Mus musculus, UniProt P32300).
T1 construct: Mouse brain membranes were prepared as described by; from tissue; host or cells: mouse brain membranes
As to the kind of experiment: Radioligand binding, delta opioid receptor ([3H]-DADLE, mouse brain membranes). The conditions noted are these: [3H]-DADLE binding, 1.3 nM, with 40 nM unlabelled DAMGO. As to the method:
(§1) Mouse brain membranes were prepared as described by Kosteriitz (Br. J. Pharmacol., 1981, 73, 939.). […] The binding of the mu ligand [^3 H]-DAMGO (Eur. J. Pharmacol., 1989, 166, 213) and of the kappa ligand [^3 H]-U69593 (Excerpta Medica, 1990, 211) were carried out at 0.5 nM. The non-specific binding was determined in presence of naloxone (10 μM) for all tritiated ligands. […] The IC50 obtained were used to calculate the inhibitory constants (Ki) accordingly to the Cheng and Prusoff relation (Biochem. Pharmacol., 1973, 22, 3099).

The next assay addresses T2, mu opioid receptor (Mus musculus, UniProt P42866).
T2 construct: Mouse brain membranes were prepared as described by; from tissue; host or cells: mouse brain membranes
Description: Radioligand binding, mu opioid receptor ([3H]-DAMGO, mouse brain membranes). The conditions noted are these: selectivity ratio, mu vs delta. As to the method: as §1

Assay [1] addresses delta opioid receptor (mouse vas deferens). As to the kind of experiment: Mouse vas deferens (MVD) bioassay, delta agonist/antagonist activity. On the procedure: The delta agonist/antagonist activity of the compounds of the present invention is determined in the mouse vas deferens (MVD) bioassay as described below.
Vasa deferentia were obtained from CD-1 mice and were suspended in a Mg^2+ -free Krebs buffer at 37° C. The tissues were electrically stimulated with pulse trains having the following parameters: train duration 50 ms, stimulus duration 2 ms, frequency of stimuli 50 Hz, maximal voltage 60-70 V, train frequency 0.1 Hz. Concentration response curves for each compounds were constructed cumulatively. Linear regression analysis and IC50 concentrations were evaluated according to Tallarida and Murray (Manual of Pharmacological Calculations, Springer Verlag N.Y., 1981).

The target in the next assay is T3, kappa opioid receptor (Mus musculus, UniProt P33534).
T3 construct: Mouse brain membranes were prepared as described by; from tissue; host or cells: mouse brain membranes
T3 sequence (P33534 whole entry): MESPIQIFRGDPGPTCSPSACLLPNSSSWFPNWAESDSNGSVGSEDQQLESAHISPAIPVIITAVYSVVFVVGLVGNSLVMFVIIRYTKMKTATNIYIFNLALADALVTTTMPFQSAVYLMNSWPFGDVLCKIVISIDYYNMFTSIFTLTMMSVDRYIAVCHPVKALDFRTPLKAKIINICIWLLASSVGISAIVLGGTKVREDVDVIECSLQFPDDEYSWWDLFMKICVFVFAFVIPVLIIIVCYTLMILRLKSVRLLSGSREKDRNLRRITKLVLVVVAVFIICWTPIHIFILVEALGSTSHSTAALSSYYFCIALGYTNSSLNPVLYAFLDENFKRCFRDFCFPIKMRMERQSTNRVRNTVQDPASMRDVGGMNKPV
Description: Radioligand binding, kappa opioid receptor ([3H]-U69593, mouse brain membranes). The conditions noted are these: selectivity ratio, kappa vs delta. As to the method:
as §1

T1 sequence (P32300 whole entry): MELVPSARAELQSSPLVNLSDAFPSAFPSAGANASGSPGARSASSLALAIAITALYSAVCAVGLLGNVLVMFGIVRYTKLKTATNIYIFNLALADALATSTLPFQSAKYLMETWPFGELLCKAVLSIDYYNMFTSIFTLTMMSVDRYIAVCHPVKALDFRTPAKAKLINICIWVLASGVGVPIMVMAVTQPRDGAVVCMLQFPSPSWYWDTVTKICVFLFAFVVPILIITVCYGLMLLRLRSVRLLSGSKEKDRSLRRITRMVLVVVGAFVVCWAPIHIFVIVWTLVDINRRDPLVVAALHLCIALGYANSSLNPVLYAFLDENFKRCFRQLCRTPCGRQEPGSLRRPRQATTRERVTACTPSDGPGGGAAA
T2 sequence (P42866 whole entry): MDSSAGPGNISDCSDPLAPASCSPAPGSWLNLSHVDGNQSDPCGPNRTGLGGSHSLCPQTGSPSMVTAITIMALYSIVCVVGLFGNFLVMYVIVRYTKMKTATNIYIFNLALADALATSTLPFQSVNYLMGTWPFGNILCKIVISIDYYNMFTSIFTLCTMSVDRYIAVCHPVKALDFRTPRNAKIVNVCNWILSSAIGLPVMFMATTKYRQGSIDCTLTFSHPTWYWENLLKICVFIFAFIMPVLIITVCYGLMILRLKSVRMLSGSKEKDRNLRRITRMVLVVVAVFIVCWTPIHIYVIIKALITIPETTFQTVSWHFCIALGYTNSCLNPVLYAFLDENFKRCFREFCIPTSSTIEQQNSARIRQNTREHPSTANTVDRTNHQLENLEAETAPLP

What is called Ki is a dissociation constant, usually derived from enzyme kinetics or from competition with a known ligand. A low value points to higher affinity. Broadly, the IC50 is the concentration at which inhibition is half-maximal. On to `CCN(CC)C(=O)c1[nH]c2c(c1C)C[C@H]1[C@H]3Cc4ccc(OC)c5c4[C@@]1(CCN3C)[C@H]2O5` [Example 7, [8R-(4bS*,8α,8aβ,12bβ)]-11-Diethylaminocarbonyl-7,10-dimethyl-1-methoxy-5,6,7,8,12,12b-hexahyro-(9H)-4,8-methanobenzofuro[3,2-e]pyrrolo[2,3-g]isoquinoline hydrochloride], for which the Ki at delta opioid receptor came to 1.59 nM. Also, the “Ki mu/Ki delta” value on mu opioid receptor came to 218. The compound also yielded an IC50 in assay [1] (electrically stimulated mouse vas deferens, 37° C.) of 25 nM. In addition, the “shift of the dose-response curve by NTI (selective antagonism)” value in assay [1] (in presence of 30 nM of NTI (naltrindole), MVD) came to 10 fold. For the same compound, the “Ki kappa/Ki delta” value at kappa opioid receptor amounted to 2259.
